This is an account of results in ChEMBL document CHEMBL1131310 (J Med Chem, 1998).

The species named for one assay is Gallus gallus. Description: The compound was evaluated for neurite outgrowth from chick dorsal root ganglia. Type of assay: functional.
Assay [1] has as its target Peptidyl-prolyl cis-trans isomerase FKBP1A (Homo sapiens, UniProt P62942). Description: The compound was tested for binding affinity against rotamase.

“And” between values parts separate entries of the source, which are not always exact repeats. Identical values can stand only once.

Sequence of Peptidyl-prolyl cis-trans isomerase FKBP1A (P62942 whole entry): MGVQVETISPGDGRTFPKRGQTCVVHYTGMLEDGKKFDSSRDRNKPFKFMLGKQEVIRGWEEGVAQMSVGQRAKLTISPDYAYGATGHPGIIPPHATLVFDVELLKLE

In the assay filed under Gallus gallus, `CCC(C)(C)C(=O)C(=O)N1CCCC[C@H]1C(=O)O[C@H](CCc1ccccc1)c1ccccc1` displayed an ED50 of 0.3 nM.
In turn, `CCC(C)(C)C(=O)C(=O)N1CCCC[C@H]1C(=O)OCCCc1cccnc1` registered an ED50 in the assay listed under Gallus gallus of 8.5 nM. Moreover, the inhibitory constant (Ki) (in general, a measure of affinity in units of concentration, obtained from inhibition or displacement) in assay [1] is 165 nM.
Compound `CCC(C)(C)C(=O)C(=O)N1CCCC[C@H]1C(=O)OCCCc1ccccc1` came in with an ED50 in the assay filed under Gallus gallus of 300 nM. Further, the Ki in assay [1] is 250 nM and 110 nM.
In the assay filed under Gallus gallus, `CCC(C)(C)C(=O)C(=O)N1CCC[C@H]1C(=O)OCCCc1ccccc1` gave an ED50 of 53 nM.
The same measure, in the same setting: the same measure for `CCC(C)(C)C(=O)C(=O)N1CCC[C@H]1C(=O)OCCCc1cccnc1` [GPI-1046]: 0.05 nM.
